Results on two compounds are retold here after paper PMC10293653 (International Journal of Biological Macromolecules, 2023).

Common to all, as to assay type: cell-based
Assay [1] relates to variants of SARS-CoV-2 (B1.1.7, B.1.351, B.1.617.2, and B.1.617.1). Conditions: for prevention of infection of all clades: alone at their highest doses; for reduction of SARS-CoV-2 infection in all lineages: alone or in combination, lowest given concentration.
Another assay concerns B.1.617.2 (δ-variant). Briefly: SARS-CoV-2 inhibition assay in Vero E6 cells, B.1.617.2. Conditions: 0.99 μM.
In another assay the test system is B.1.351 (β-variant). Briefly: SARS-CoV-2 inhibition assay in Vero E6 cells, B.1.351. The following applies: 0.99 μM.
The subject of the next assay is B.1.617 (κ-variant). The assay is described as follows: SARS-CoV-2 inhibition assay in Vero E6 cells, B.1.617. Conditions: 0.99 μM.
The next assay deals with B.1.1.7 (α-variant). Briefly: SARS-CoV-2 inhibition assay in Vero E6 cells, B.1.1.7. Conditions: 0.99 μM.

For `CC#CCn1c(N2CCC[C@@H](N)C2)nc2c1c(=O)n(Cc1nc(C)c3ccccc3n1)c(=O)n2C` [Linagliptin, linagliptin], in assay [1], the “inhibitory effectiveness against all VOCs” value is listed as “dose-dependent inhibitory effectiveness”, the “prevention of infection of all clades” value is listed as “entirely prevent the infection of all clades” and the “reduction of SARS-CoV-2 infection in all lineages” value is on record as 6–10 folds.

`N[C@@H](CC(=O)N1CCn2c(nnc2C(F)(F)F)C1)Cc1cc(F)c(F)cc1F` [Sitagliptin, sitagliptin]: the “effect on δ-SARS-CoV-2 growth” value in the assay on B.1.617.2 (δ-variant) is recorded as “unable to prevent even the partial growth”. Further, the “inhibition of viral growth among all variants” value in assay [1] (1.98 μM) was 6–7 folds. Moreover, in assay [1], the “prevention of infection of all clades” value is reported as “entirely prevent the infection of all clades” and the “reduction of SARS-CoV-2 infection in all lineages” value is reported as 6–10 folds. The “effect on β-SARS-CoV-2 growth” value in the assay with B.1.351 (β-variant) is on record as “partially inhibit”. Besides, the “effect on κ-SARS-CoV-2 growth” value in the assay on B.1.617 (κ-variant) is recorded as “partially inhibit”. Besides, the “effect on α-SARS-CoV-2 growth” value with B.1.1.7 (α-variant) was “partially inhibit”.
